This assay has as its system isolated rat adipocytes. Briefly: Antagonism of fragment 116-167 to the leptin effect: insulin-stimulated lipogenesis. Format: cell-based. As for the experimental part:
Adipocytes were prepared from the epididymal fat tissue of male Wistar rats (140-160 g, Hoechst AG breeding station, Kastengrund) by means of digesting with collagenase (Rodbell, 1964, J. Biol. Chem. 239, 375-380), washed twice with KRH (25 mM Hepes free acid, 25 mM Hepes sodium salt, 80 mM NaCl, 1 mM MgSO4, 2 mM CaCl2, 6 mM KCl, 1 mM sodium pyruvate, 0.5% BSA) and once with DMEM (Dulbecco's minimal essential medium), supplemented with 5.5 mM glucose, 20 mM Hepes (pH 7.4), 2% fetal calf serum, 1% BSA, 50 U of penicillin/ml, […], by means of flotation (800×g, 1 min, in small plastic tubes), and finally diluted to a volume of 20 ml of DMEM/g wet weight of the fat tissue (cell titer: approximately 2.5×10^5 cells/ml). […] In order to determine the capacity of the adipocytes to be stimulated by insulin, and their sensitivity to insulin, following the primary culture, the washed adipocytes were incubated at 37° C. for 20 min in the absence or presence of human insulin (0.02-50 nM final concentration), and glucose transport or lipogenesis was then measured. Lipogenesis was measured as the incorporation of D-glucose into toluene-extractable lipids (Moody et al., 1974, Horm. Metab. Res. 6, 12-16). […] The radioactivity of the lipids in the toluene phase was corrected for the radioactivity of an incubation mixture which contained the same quantity of [^3H]glucose but no cells. […]

We go through two substances from patent US6399745B1, “Use of leptin antagonists for treating insulin resistance in type II diabetes” (Aventis Pharma Deutschland GmbH, priority 1996, dated 2002).

Take Leptin: the “Lipogenesis, stimulation factor for insulin (stimulated/basal)” value (Leptin: 10 nM 17.5 h, no fragment, Insulin: 5 nM) came out at 1.5.

For “Insulin: human insulin used to stimulate adipocytes [reference compound]”, under “Insulin only, 5 nM (no leptin, no fragment)”, the “Lipogenesis, stimulation factor for insulin (stimulated/basal)” value is 3.9.
